Assay [1] concerns Peripheral Neuropathy in a Mouse Caused by Paclitaxel. The format is in vivo, Balb/c mice. The settings on record: 6 mg/kg paclitaxel + 100 mg/kg orally daily from Day 6 (therapy); from Day 12 onwards. An excerpt: Six to seven-week-old female Balb/c mice were used for the tests. All the mice were acclimated for seven days after arrival. Then, the mice were grouped into the following four groups: a control group, a group receiving paclitaxel, a group receiving xylitol, and a group receiving paclitaxel and xylitol (a group receiving paclitaxel+xylitol). Each group consisted of five mice.
On Day 8 of acclimation, the mice in the group receiving paclitaxel and the group receiving paclitaxel+xylitol were intraperitoneally administered with paclitaxel at a dose of 6 mg/kg. This day was designated as Day 0 of administration. Thereafter, these mice were intraperitoneally administered with paclitaxel at a daily dose of 6 mg/kg on Day 7 and Day 14.
The mice in the group receiving xylitol and the group receiving paclitaxel+xylitol were orally administered with xylitol at a dose of 5 mg/kg daily from Day 0.
The mice in the four groups described in (4) of the present example (Example 1) were placed in a cage, and the avoidance response frequency (score) was measured by pressing a filament with a bending force of 0.16 g against the back of the hind paw.
Six to seven-week-old female Balb/c mice were used for the tests as with Example 1. All the mice were acclimated for seven days after arrival. Then, the mice were grouped into the following four groups: a control group, a group receiving paclitaxel, a group receiving xylitol, and a group receiving paclitaxel and xylitol (a group receiving paclitaxel+xylitol). Each group consisted of five mice. […]
For the mice in the four groups described in (6) of the present example (Example 2), the avoidance response frequency (score) was measured by pressing a filament with a bending force of 0.16 g against the back of the hind paw. […]
The mice in the four groups described in (4) of the present example (Example 3) were placed in a cage, and the avoidance response frequency (score) was measured by pressing a filament with a bending force of 0.16 g against the back of the hind paw. […]

Assay [2] shares this test system. It is filed as in vivo, Balb/c mice. An excerpt: Six to seven-week-old female Balb/c mice were used for the tests as with Example 1. All the mice were acclimated for seven days after arrival. Then, the mice were grouped into the following four groups: a control group, a group receiving paclitaxel, a group receiving xylitol, and a group receiving paclitaxel and xylitol (a group receiving paclitaxel+xylitol). Each group consisted of five mice.
On Day 8 of acclimation, the mice in the group receiving paclitaxel and the group receiving paclitaxel+xylitol were intraperitoneally administered with paclitaxel at a dose of 6 mg/kg. This day was designated as the first day of the administration (Day 0). Thereafter, these mice were intraperitoneally administered with paclitaxel at the same dose on Day 7 and Day 14 for a total of 3 doses.
The mice in the group receiving 100 mg/kg xylitol were orally administered with xylitol at a dose of 100 mg/kg daily from Day 0. The mice in the group receiving paclitaxel+100 mg/kg xylitol were orally administered with xylitol at a dose of 100 mg/kg daily from Day 6 of administration.
A test was performed on the mice in the four groups described in (6) of the present example (Example 2) to examine the effect of xylitol on paresthesia that is caused by a low temperature stimulus. The mice in respective groups were placed on a cold plate set at 10° C., and withdrawal response time (latent time) was measured. It is presumed that a shorter latent time reflects a greater degree of shunning the low temperature stimulus by the cold plate. […]
The mice in the group receiving 100 mg/kg D-threitol were orally administered with D-threitol at a dose of 100 mg/kg daily from Day 0. The mice in the group receiving paclitaxel+100 mg/kg D-threitol were orally administered with D-threitol at a dose of 100 mg/kg daily from Day 6 of administration.
A test was performed on the mice in the four groups described in (4) of the present example (Example 4) to examine the effect of D-threitol on paresthesia that is caused by a low temperature stimulus. The mice in respective groups were placed on a cold plate set at 10° C., and withdrawal response time (latent time) was measured. It is presumed that a shorter latent time reflects a greater degree of shunning the low temperature stimulus by the cold plate.
Six to seven-week-old female Balb/c mice were used for the tests as with Example 1. All the mice were acclimated for seven days after arrival. Then, the mice were grouped into the following four groups: a control group, a group receiving paclitaxel, a group receiving L-talitol, and a group receiving paclitaxel and L-talitol (a group receiving paclitaxel+L-talitol). Each group consisted of five mice.
On Day 8 of acclimation, the mice in the group receiving paclitaxel and the group receiving paclitaxel+L-talitol were intraperitoneally administered with paclitaxel at a dose of 6 mg/kg. This day was designated as Day 0 of administration. Thereafter, these mice were intraperitoneally administered with paclitaxel at a daily dose of 6 mg/kg on Day 7 and Day 14.
The mice in the group receiving L-talitol and the group receiving paclitaxel+L-talitol were orally administered with L-talitol at a dose of 5 mg/kg daily from Day 0.
A cold plate test was performed to examine the effect of L-talitol on paresthesia that is caused by a low temperature stimulus. The mice in the four groups described in (4) of the present example (Example 5) were placed on a cold plate set at 10° C., and withdrawal response time (latent time) was measured. It is presumed that a shorter latent time reflects a greater degree of shunning the low temperature stimulus by the cold plate.
On Day 8 of acclimation, the mice in the group receiving paclitaxel and the group receiving paclitaxel+L-talitol were intraperitoneally administered with paclitaxel at a dose of 6 mg/kg. This day was designated as the first day of the administration (Day 0). […]

Setting [3] is: 6 mg/kg paclitaxel + 5 mg/kg test substance orally daily from Day 0 (prevention).
The mark [4] stands for this setting: 6 mg/kg paclitaxel + 100 mg/kg orally daily from Day 6, on Day 12, vs group receiving 6 mg/kg paclitaxel.

This note sets out measurements from patent publication US20240099989A1, “AGENT FOR PREVENTING OR IMPROVING PERIPHERAL NEUROPATHY” (KINKI UNIVERSITY, priority 2021, published 2024).

Read-outs that look alike come from different tables or passages of the source.

Regarding `OC[C@@H](O)[C@H](O)CO` [D-threitol], the avoidance response score entry in assay [1] is “maintained a score clearly lower than that of the group receiving paclitaxel”. Further, the “withdrawal response time (latent time)” value in assay [2] (setting [3]) is on record as “approximately similar to that of the control group”; in assay [2] (setting [4]) it was “significantly longer withdrawal response time”.
The corresponding values for `OC[C@H](O)[C@H](O)[C@H](O)[C@@H](O)CO` [L-talitol] are “maintained a score clearly lower than that of the group receiving paclitaxel”, “approximately similar to that of the control group” and “significantly longer withdrawal response time”.
Taken in the same sequence, the figures for `OC[C@@H](O)[C@H](O)[C@@H](O)CO` [xylitol] were “maintained a score clearly lower than that of the group receiving paclitaxel”, “approximately similar to that of the control group” and “significantly longer withdrawal response time”.
